# Measured values from patent US20210045385A1, “PYRIDAZINONE-SUBSTITUTED KETOXIMES AS HERBICIDES” (FMC Corporation, priority 2018, published 2021).
# How the values were obtained:
# Type in all cases: in vivo
# [1] = system: barnyardgrass (Echinochloa crus-galli); assay: Test C postemergence, visual plant response rating
# In short: (§1)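 Seeds sown in a loam–sand blend got a directed preemergence soil spray; postemergence plants (2–10 cm, one- to two-leaf stage) were sprayed with compound in a non-phytotoxic solvent plus surfactant. Injury was scored visually against untreated controls after about 10 d in a greenhouse on a 0–100 scale (100 = complete control).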
# [2] = system: ragweed (common ragweed, Ambrosia artemisiifolia); assay: Test C postemergence, visual plant response rating
# In short: as §1
# [3] = system: foxtail, giant (giant foxtail, Setaria faberi); assay: Test C postemergence, visual plant response rating
# In short: as §1
# [4] = system: Italian ryegrass (Lolium mutiflorum); assay: Test C postemergence, visual plant response rating
# In short: as §1
# [5] = system: wheat (Triticum aestivum); assay: Test C postemergence, visual plant response rating
# In short: as §1
# kochia (Bassia scoparia) [6] = assay: Test C postemergence, visual plant response rating
# In short: as §1
# [7] = system: pigweed (Amaranthus retroflexus); assay: Test C postemergence, visual plant response rating
# In short: as §1
# corn (Zea mays) = assay: Test C postemergence, visual plant response rating
# In short: as §1
# [8] = system: galium (catchweed bedstraw, Galium aparine); assay: Test C postemergence, visual plant response rating
# In short: as §1
# [9] = system: blackgrass (Alopecurus myosuroides); assay: Test C postemergence, visual plant response rating
# In short: as §1
# [10] = system: barnyardgrass (Echinochloa crus-galli); assay: Test C preemergence, visual plant response rating; details: Test C, 0 is no effect, 100 is complete control
# In short: as §1
# [11] = system: ragweed (common ragweed, Ambrosia artemisiifolia); assay: Test C preemergence, visual plant response rating; details: Test C, 0 is no effect, 100 is complete control
# In short: as §1
# [12] = system: foxtail, giant (giant foxtail, Setaria faberi); assay: Test C preemergence, visual plant response rating; details: Test C, 0 is no effect, 100 is complete control
# In short: as §1
# [13] = system: Italian ryegrass (Lolium mutiflorum); assay: Test C preemergence, visual plant response rating; details: Test C, 0 is no effect, 100 is complete control
# In short: as §1
# kochia (Bassia scoparia) [14] = assay: Test C preemergence, visual plant response rating; details: Test C, 0 is no effect, 100 is complete control
# In short: as §1
# [15] = system: pigweed (Amaranthus retroflexus); assay: Test C preemergence, visual plant response rating; details: Test C, 0 is no effect, 100 is complete control
# In short: as §1
# [16] = system: barnyardgrass (Echinochloa crus-galli); assay: Test D flooded paddy test, visual plant response rating; details: 250 g ai/ha, scale 0 to 100 (0 no effect, 100 complete control), 13 to 15 d
# In short: (§2)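 Greenhouse paddy assay scored on a 0–100 visual scale after 13 to 15 d, where 100 means complete control and a dash marks no result; dosing was into 3 cm floodwater over 2-leaf plants.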
# [17] = system: duck salad (Heteranthera limosa); assay: as above; details: 250 g ai/ha, scale 0 to 100 (0 no effect, 100 complete control), 13 to 15 d
# In short: as §2
# [18] = system: sedge umbrella (small-flower umbrella sedge, Cyperus difformis); assay: as above; details: 250 g ai/ha, scale 0 to 100 (0 no effect, 100 complete control), 13 to 15 d
# In short: as §2
# rice (Oryza sativa) = assay: as above; details: 250 g ai/ha, scale 0 to 100 (0 no effect, 100 complete control), 13 to 15 d
# In short: as §2
# [19] = Test C, postemergence, 125 g ai/ha
SMILES,"Barnyardgrass plant response rating (0 to 100 scale) ([1]; Postemergence, 31 g ai/ha)","Barnyardgrass plant response rating (0 to 100 scale) [1, 19]","Ragweed plant response rating (0 to 100 scale) ([2]; Postemergence, 31 g ai/ha)","Ragweed plant response rating (0 to 100 scale) [2, 19]","Foxtail, Giant plant response rating (0 to 100 scale) ([3]; Postemergence, 31 g ai/ha)","Foxtail, Giant plant response rating (0 to 100 scale) [3, 19]","Ryegrass, Italian plant response rating (0 to 100 scale) ([4]; Postemergence, 31 g ai/ha)","Ryegrass, Italian plant response rating (0 to 100 scale) [4, 19]","Wheat plant response rating (0 to 100 scale) ([5]; Postemergence, 31 g ai/ha)","Wheat plant response rating (0 to 100 scale) [5, 19]","Kochia plant response rating (0 to 100 scale) (kochia (Bassia scoparia) [6]; Postemergence, 31 g ai/ha)",Kochia plant response rating (0 to 100 scale) (kochia (Bassia scoparia) [6]; [19]),"Pigweed plant response rating (0 to 100 scale) ([7]; Postemergence, 31 g ai/ha)","Pigweed plant response rating (0 to 100 scale) [7, 19]","Corn plant response rating (0 to 100 scale) (corn (Zea mays); Postemergence, 31 g ai/ha)",Corn plant response rating (0 to 100 scale) (corn (Zea mays); [19]),"Galium plant response rating (0 to 100 scale) ([8]; Postemergence, 31 g ai/ha)","Galium plant response rating (0 to 100 scale) [8, 19]","Blackgrass plant response rating (0 to 100 scale) ([9]; Postemergence, 31 g ai/ha)","Blackgrass plant response rating (0 to 100 scale) [9, 19]",other results
CCOc1cccc(C(=NOC)c2c(O)c(C)nn(C)c2=O)c1 [Compound 200],20,30,0,0,10,20,0,0,0,0,0,0,0,0,0,0,30,40,0,0,"Barnyardgrass plant response rating (0 to 100 scale) ([10]; 31 g ai/ha): 0; Barnyardgrass plant response rating (0 to 100 scale) ([10]; 125 g ai/ha): 0; Ragweed plant response rating (0 to 100 scale) ([11]; 31 g ai/ha): 0; Ragweed plant response rating (0 to 100 scale) ([11]; 125 g ai/ha): 0; Foxtail, Giant plant response rating (0 to 100 scale) ([12]; 31 g ai/ha): 0; Foxtail, Giant plant response rating (0 to 100 scale) ([12]; 125 g ai/ha): 10; Ryegrass, Italian plant response rating (0 to 100 scale) ([13]; 31 g ai/ha): 0; Ryegrass, Italian plant response rating (0 to 100 scale) ([13]; 125 g ai/ha): 0; Kochia plant response rating (0 to 100 scale) (kochia (Bassia scoparia) [14]; 31 g ai/ha): 0; Kochia plant response rating (0 to 100 scale) (kochia (Bassia scoparia) [14]; 125 g ai/ha): 0; Pigweed plant response rating (0 to 100 scale) ([15]; 31 g ai/ha): 0; Pigweed plant response rating (0 to 100 scale) ([15]; 125 g ai/ha): 0; Plant response rating, Barnyardgrass (Flood) [16]: 0; Plant response rating, Ducksalad (Flood) [17]: 0; Plant response rating, Sedge, Umbrella (Flood) [18]: 0; Plant response rating, Rice (Flood) (rice (Oryza sativa)): 0"
CO/N=C(\c1cc(F)cc(C)c1F)c1c(O)c(C)nn(C)c1=O [Compound 193],20,50,70,70,40,50,40,70,0,0,60,70,40,80,0,10,80,90,20,50,"Barnyardgrass plant response rating (0 to 100 scale) ([10]; 31 g ai/ha): 30; Barnyardgrass plant response rating (0 to 100 scale) ([10]; 125 g ai/ha): 60; Ragweed plant response rating (0 to 100 scale) ([11]; 31 g ai/ha): 30; Ragweed plant response rating (0 to 100 scale) ([11]; 125 g ai/ha): 60; Foxtail, Giant plant response rating (0 to 100 scale) ([12]; 31 g ai/ha): 30; Foxtail, Giant plant response rating (0 to 100 scale) ([12]; 125 g ai/ha): 80; Ryegrass, Italian plant response rating (0 to 100 scale) ([13]; 31 g ai/ha): 30; Ryegrass, Italian plant response rating (0 to 100 scale) ([13]; 125 g ai/ha): 80; Kochia plant response rating (0 to 100 scale) (kochia (Bassia scoparia) [14]; 31 g ai/ha): 10; Kochia plant response rating (0 to 100 scale) (kochia (Bassia scoparia) [14]; 125 g ai/ha): 70; Pigweed plant response rating (0 to 100 scale) ([15]; 31 g ai/ha): 50; Pigweed plant response rating (0 to 100 scale) ([15]; 125 g ai/ha): 90; Plant response rating, Barnyardgrass (Flood) [16]: 0; Plant response rating, Ducksalad (Flood) [17]: 0; Plant response rating, Sedge, Umbrella (Flood) [18]: 0; Plant response rating, Rice (Flood) (rice (Oryza sativa)): 0"
C#CCO/N=C(\c1cccc(Br)c1)c1c(O)c(C)nn(C)c1=O [Compound 278],40,50,60,80,30,70,70,80,40,80,40,80,30,70,0,20,80,90,50,90,"Barnyardgrass plant response rating (0 to 100 scale) ([10]; 31 g ai/ha): 0; Barnyardgrass plant response rating (0 to 100 scale) ([10]; 125 g ai/ha): 20; Ragweed plant response rating (0 to 100 scale) ([11]; 31 g ai/ha): 10; Ragweed plant response rating (0 to 100 scale) ([11]; 125 g ai/ha): 40; Foxtail, Giant plant response rating (0 to 100 scale) ([12]; 31 g ai/ha): 30; Foxtail, Giant plant response rating (0 to 100 scale) ([12]; 125 g ai/ha): 60; Ryegrass, Italian plant response rating (0 to 100 scale) ([13]; 31 g ai/ha): 20; Ryegrass, Italian plant response rating (0 to 100 scale) ([13]; 125 g ai/ha): 100; Kochia plant response rating (0 to 100 scale) (kochia (Bassia scoparia) [14]; 31 g ai/ha): 0; Kochia plant response rating (0 to 100 scale) (kochia (Bassia scoparia) [14]; 125 g ai/ha): 70; Pigweed plant response rating (0 to 100 scale) ([15]; 31 g ai/ha): 0; Pigweed plant response rating (0 to 100 scale) ([15]; 125 g ai/ha): 0; Plant response rating, Barnyardgrass (Flood) [16]: 0; Plant response rating, Ducksalad (Flood) [17]: 0; Plant response rating, Sedge, Umbrella (Flood) [18]: 0; Plant response rating, Rice (Flood) (rice (Oryza sativa)): 0"
